Here are results for 10 molecules from PubChem BioAssay AID328 (DTP/NCI, 2004).

The assay relates to BDF1 mice, P388 leukemia ip, median survival T/C. The assay is described as follows: NCI In Vivo Anticancer Drug Screen. Data for tumor model P388 Leukemia (intraperitoneal) in B6D2F1 (BDF1) mice. The settings on record: endpoint: median survival time, higher = longer survival. In outline: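 In tumour-bearing mice, survival after compound treatment is set against the vehicle group and given as a quotient.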

[1] abbreviates: dose: 100.0 mg/kg/injection, schedule: Q04DX003 (ip), vehicle: saline with Tween-80.
Where [2] appears, read: dose: 200.0 mg/kg/injection, schedule: Q04DX003 (ip), vehicle: saline with Tween-80.
Where [3] appears, read: dose: 400.0 mg/kg/injection, schedule: Q04DX003 (ip), vehicle: saline with Tween-80.
The mark [4] stands for this setting: dose: 50.0 mg/kg/injection, schedule: Q01DX009 (ip), vehicle: saline with Tween-80.
The mark [5] stands for this setting: dose: 100.0 mg/kg/injection, schedule: Q01DX009 (ip), vehicle: saline with Tween-80.
Setting [6] is: dose: 200.0 mg/kg/injection, schedule: Q01DX009 (ip), vehicle: saline with Tween-80.
[7] abbreviates: dose: 400.0 mg/kg/injection, schedule: Q01DX009 (ip), vehicle: saline with Tween-80.

Where “and” joins values, the source holds several entries; their conditions need not be identical. Equal entries are not always repeated. Inconclusive results and toxic doses are left out.

In the case of `O=NN(CCCl)C(=O)NCCCl`, the T/C reads like this: (dose: 0.5 mg/kg/injection, schedule: Q01DX001 (ip), vehicle: saline) 111 % of control; (dose: 1.0 mg/kg/injection, schedule: Q01DX001 (ip), vehicle: saline) 105 % of control; (dose: 2.0 mg/kg/injection, schedule: Q01DX009 (ip), vehicle: other) 172 % of control and 180 % of control; (dose: 3.13 mg/kg/injection, schedule: Q01DX010 (ip), vehicle: saline) 255 % of control and 260 % of control; (dose: 3.2 mg/kg/injection, schedule: Q01DX009 (ip), vehicle: saline + alcohol) 195 % of control; (dose: 4.0 mg/kg/injection, schedule: Q01DX009 (ip), vehicle: other) 227 % of control and 276 % of control. In addition, the T/C runs as follows: (dose: 4.8 mg/kg/injection, schedule: Q01DX009 (ip), vehicle: saline + alcohol) 275 % of control and 276 % of control; (dose: 5.0 mg/kg/injection, schedule: Q01DX001 (ip), vehicle: saline) 164 % of control; (dose: 6.25 mg/kg/injection, schedule: Q01DX010 (ip), vehicle: saline) 300 % of control; (dose: 6.4 mg/kg/injection, schedule: Q01DX009 (ip), vehicle: saline + alcohol) 319 % of control and 532 % of control; (dose: 7.5 mg/kg/injection, schedule: Q01DX001 (ip), vehicle: saline + alcohol) 157 % of control and 200 % of control; (dose: 7.5 mg/kg/injection, schedule: Q01DX001 (ip), vehicle: saline) 211 % of control. Further, the T/C is, setting by setting: (dose: 8.0 mg/kg/injection, schedule: Q01DX009 (ip), vehicle: other) 270 % of control and 514 % of control; (dose: 10.0 mg/kg/injection, schedule: Q01DX001 (ip), vehicle: saline) 212 % of control; (dose: 12.0 mg/kg/injection, schedule: Q01DX001 (ip), vehicle: Klucel (hydroxypropylcellulose) (HPC)) 119 % of control; (dose: 15.0 mg/kg/injection, schedule: Q01DX001 (ip), vehicle: saline + alcohol) 253 % of control and 176 % of control; (dose: 15.0 mg/kg/injection, schedule: Q01DX001 (ip), vehicle: saline) 159 % of control; (dose: 16.0 mg/kg/injection, schedule: Q01DX001 (ip), vehicle: saline + alcohol) 196 % of control. In addition, the T/C reads like this: (dose: 16.0 mg/kg/injection, schedule: Q01DX009 (ip), vehicle: other) 100 % of control; (dose: 20.0 mg/kg/injection, schedule: Q01DX001 (ip), vehicle: saline) 238 % of control and 154 % of control; (dose: 20.0 mg/kg/injection, schedule: Q#XHX024 (ip), vehicle: saline) 229 % of control; (dose: 21.6 mg/kg/injection, schedule: Q01DX001 (ip), vehicle: other) 175 % of control; (dose: 21.6 mg/kg/injection, schedule: Q01DX001 (ip), vehicle: saline + alcohol) 152 % of control; (dose: 30.0 mg/kg/injection, schedule: Q01DX001 (ip), vehicle: saline) 247 % of control and 564 % of control and 159 % of control. Also, the T/C (dose: 30.0 mg/kg/injection, schedule: Q#XHX024 (ip), vehicle: saline) is 546 % of control; the T/C (dose: 32.0 mg/kg/injection, schedule: Q01DX001 (ip), vehicle: saline + alcohol) is 225 % of control; the T/C (dose: 36.0 mg/kg/injection, schedule: Q01DX001 (ip), vehicle: other) was 236 % of control; the T/C (dose: 36.0 mg/kg/injection, schedule: Q01DX001 (ip), vehicle: saline + alcohol) is 499 % of control; the T/C (dose: 40.0 mg/kg/injection, schedule: Q01DX001 (ip), vehicle: saline) is 266 % of control; the T/C (dose: 60.0 mg/kg/injection, schedule: Q01DX001 (ip), vehicle: saline + alcohol) is 88 % of control. For the same molecule, the T/C (dose: 64.0 mg/kg/injection, schedule: Q01DX001 (ip), vehicle: saline + alcohol) was 281 % of control.
`COc1ccccc1NC(N)=O`: the T/C reads like this: under setting [1], 105 % of control; under setting [2], 105 % of control; under setting [3], 100 % of control.
As to `O=CN(c1ccccc1)c1ccccc1`, the T/C was 110 % of control under setting [4]; 104 % of control (dose: 100.0 mg/kg/injection, schedule: Q01DX001 (ip), vehicle: other); 95 % of control under setting [5]; 91 % of control (dose: 100.0 mg/kg/injection, schedule: Q04DX003 (ip), vehicle: other); 95 % of control (dose: 100.0 mg/kg/injection, schedule: Q04DX003 (ip), vehicle: saline); 115 % of control (dose: 175.0 mg/kg/injection, schedule: Q04DX003 (ip), vehicle: saline with Tween-80). The T/C (dose: 200.0 mg/kg/injection, schedule: Q01DX001 (ip), vehicle: other) was 108 % of control; the T/C under setting [6] was 100 % of control; the T/C (dose: 200.0 mg/kg/injection, schedule: Q04DX003 (ip), vehicle: other) was 116 % of control; the T/C (dose: 200.0 mg/kg/injection, schedule: Q04DX003 (ip), vehicle: saline) was 100 % of control; the T/C (dose: 400.0 mg/kg/injection, schedule: Q01DX001 (ip), vehicle: other) is 87 % of control; the T/C under setting [7] is 105 % of control. The T/C runs as follows: under setting [3], 150 % of control; (dose: 400.0 mg/kg/injection, schedule: Q04DX003 (ip), vehicle: saline) 86 % of control.
On to `C=CCCCCCCCCC(=O)NCc1cccnc1`, for which the T/C was 86 % of control under setting [5], 95 % of control under setting [6] and 100 % of control under setting [7].
As for `NC(CC(=O)CCl)C(=O)O` (stereo not drawn), the T/C (dose: 8.25 mg/kg/injection, schedule: Q04DX003 (ip), vehicle: saline with Tween-80) was 154 % of control; the T/C (dose: 12.5 mg/kg/injection, schedule: Q04DX003 (ip), vehicle: Klucel (hydroxypropylcellulose) (HPC)) is 165 % of control; the T/C (dose: 12.5 mg/kg/injection, schedule: Q04DX003 (ip), vehicle: saline with Tween-80) is 172 % of control; the T/C (dose: 18.75 mg/kg/injection, schedule: Q04DX003 (ip), vehicle: saline with Tween-80) was 109 % of control; the T/C (dose: 25.0 mg/kg/injection, schedule: Q04DX003 (ip), vehicle: Klucel (hydroxypropylcellulose) (HPC)) was 165 % of control.
As to `CC1=C(C)C(=O)c2c(OC(=O)c3ccccc3)c(Cl)cc(OC(=O)c3ccccc3)c2C1=O`, the T/C is, setting by setting: (dose: 25.0 mg/kg/injection, schedule: Q04DX003 (ip), vehicle: saline with Tween-80) 93 % of control; (dose: 50.0 mg/kg/injection, schedule: Q04DX003 (ip), vehicle: saline with Tween-80) 92 % of control; under setting [1], 89 % of control and 94 % of control; under setting [2], 93 % of control; under setting [3], 109 % of control.
Consider `CC(=Nc1ccccc1)C1=C(O)C(Cc2ccc(O)cc2)NC1=O` (stereo not drawn), for which the T/C reads like this: under setting [4], 110 % of control; under setting [5], 101 % of control.
On to `CN(C)CCC=C1c2ccccc2-c2ccccc21`, for which the T/C was 100 % of control (dose: 12.5 mg/kg/injection, schedule: Q04DX003 (ip), vehicle: saline); 115 % of control (dose: 25.0 mg/kg/injection, schedule: Q01DX009 (ip), vehicle: saline); 90 % of control (dose: 25.0 mg/kg/injection, schedule: Q04DX003 (ip), vehicle: saline); 109 % of control and 120 % of control (dose: 50.0 mg/kg/injection, schedule: Q01DX009 (ip), vehicle: saline); 100 % of control (dose: 50.0 mg/kg/injection, schedule: Q04DX003 (ip), vehicle: saline); 113 % of control (dose: 75.0 mg/kg/injection, schedule: Q04DX003 (ip), vehicle: saline). Also, the T/C is 113 % of control (dose: 100.0 mg/kg/injection, schedule: Q01DX009 (ip), vehicle: saline) and 95 % of control (dose: 115.0 mg/kg/injection, schedule: Q04DX003 (ip), vehicle: saline).
Take `CCC[CH2][Sn]1([CH2]CCC)[O]OC(c2ccc(C)cc2)[O]1` (stereo not drawn): the T/C reads like this: (dose: 0.38 mg/kg/injection, schedule: Q01DX009 (ip), vehicle: saline with Tween-80) 114 % of control; (dose: 1.5 mg/kg/injection, schedule: Q01DX009 (ip), vehicle: saline with Tween-80) 117 % of control; (dose: 3.13 mg/kg/injection, schedule: Q01DX009 (ip), vehicle: saline with Tween-80) 123 % of control; (dose: 5.3 mg/kg/injection, schedule: Q01DX009 (ip), vehicle: saline with Tween-80) 86 % of control.
As to `Clc1ccc(N2CCN(CCCN3CCN(c4cccc(Cl)c4)CC3)CC2)cc1`, the T/C was 100 % of control (dose: 50.0 mg/kg/injection, schedule: Q04DX003 (ip), vehicle: saline sonified); 100 % of control (dose: 100.0 mg/kg/injection, schedule: Q04DX003 (ip), vehicle: saline sonified); 91 % of control (dose: 200.0 mg/kg/injection, schedule: Q04DX003 (ip), vehicle: saline sonified).
